Assay results taken from US7045532B2 (Millennium Pharmaceuticals, Inc., priority 1999, dated 2006).
Like-named read-outs stand apart in the source and are kept apart here.

Tests used:
ACE-2 [1] = molecular target: T1, ACE-2 (Homo sapiens, UniProt Q9BYF1); assay: ACE-2 Competitive Substrate Assay (ACS Assay); format: biochemical
T1 construct: a stop codon inserted after the serine immediately preceding the transmembrane domain; made in house; host or cells: CHO K1 cells (transient transfection, purified from conditioned medium)
T1 sequence (Q9BYF1 18-740 limits assumed): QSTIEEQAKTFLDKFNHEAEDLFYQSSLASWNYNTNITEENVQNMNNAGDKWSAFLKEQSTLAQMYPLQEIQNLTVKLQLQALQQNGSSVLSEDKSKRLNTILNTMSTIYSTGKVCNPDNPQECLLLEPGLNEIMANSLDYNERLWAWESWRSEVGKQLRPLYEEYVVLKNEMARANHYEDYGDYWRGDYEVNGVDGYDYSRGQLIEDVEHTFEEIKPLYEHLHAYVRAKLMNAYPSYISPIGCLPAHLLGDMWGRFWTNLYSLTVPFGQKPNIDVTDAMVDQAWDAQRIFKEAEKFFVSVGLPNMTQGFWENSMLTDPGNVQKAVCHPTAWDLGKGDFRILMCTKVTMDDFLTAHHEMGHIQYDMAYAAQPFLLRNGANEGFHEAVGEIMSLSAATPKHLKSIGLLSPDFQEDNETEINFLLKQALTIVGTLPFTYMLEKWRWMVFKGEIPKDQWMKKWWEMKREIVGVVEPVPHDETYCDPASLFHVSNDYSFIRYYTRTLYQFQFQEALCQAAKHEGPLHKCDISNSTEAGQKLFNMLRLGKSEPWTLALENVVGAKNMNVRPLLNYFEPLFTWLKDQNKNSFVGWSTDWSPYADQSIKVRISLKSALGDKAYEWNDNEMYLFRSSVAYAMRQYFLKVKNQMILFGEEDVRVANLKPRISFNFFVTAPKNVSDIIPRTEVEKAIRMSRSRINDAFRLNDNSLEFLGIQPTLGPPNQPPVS

ACE-2 [2] = molecular target: ACE-2 (Rattus norvegicus, UniProt Q5EGZ1); assay: ACE-2 Competitive Substrate Assay, rat ACE-2; format: biochemical; details: Ki class, compounds tested in 5% DMSO
Sequence of ACE-2 (Rattus norvegicus, UniProt Q5EGZ1) (Q5EGZ1 18-805): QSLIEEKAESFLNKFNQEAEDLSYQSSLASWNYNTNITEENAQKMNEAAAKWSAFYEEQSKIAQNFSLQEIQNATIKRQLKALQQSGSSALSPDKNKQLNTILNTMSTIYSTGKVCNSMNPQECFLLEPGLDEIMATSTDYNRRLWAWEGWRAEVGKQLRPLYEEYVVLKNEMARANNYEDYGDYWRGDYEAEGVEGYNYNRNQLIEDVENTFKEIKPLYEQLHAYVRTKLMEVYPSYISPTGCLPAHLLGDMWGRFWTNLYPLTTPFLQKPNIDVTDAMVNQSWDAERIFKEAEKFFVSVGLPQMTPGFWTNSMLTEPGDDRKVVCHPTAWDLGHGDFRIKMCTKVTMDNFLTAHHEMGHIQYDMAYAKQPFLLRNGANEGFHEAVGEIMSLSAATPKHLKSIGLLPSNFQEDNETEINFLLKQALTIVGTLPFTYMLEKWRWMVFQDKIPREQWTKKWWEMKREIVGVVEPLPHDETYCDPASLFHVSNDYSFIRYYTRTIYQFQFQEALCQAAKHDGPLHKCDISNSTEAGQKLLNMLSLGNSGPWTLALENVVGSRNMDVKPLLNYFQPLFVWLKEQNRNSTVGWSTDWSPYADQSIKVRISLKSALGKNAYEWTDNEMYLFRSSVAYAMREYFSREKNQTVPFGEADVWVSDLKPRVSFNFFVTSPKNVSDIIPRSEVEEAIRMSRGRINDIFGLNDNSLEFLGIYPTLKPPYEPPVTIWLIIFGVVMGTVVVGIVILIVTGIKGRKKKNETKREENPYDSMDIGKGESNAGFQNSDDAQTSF

ACE (Sigma, A2580) = molecular target: T2, ACE (Sigma, A2580) (Sus scrofa, UniProt F1RRW5); assay: ACE enzymatic activity assay; format: biochemical, porcine; details: Ki class, compounds tested in 5% DMSO
T2 construct: ACE from porcine kidney; purchased Sigma A2580; host or cells: porcine kidney
T2 sequence (F1RRW5 34-1309): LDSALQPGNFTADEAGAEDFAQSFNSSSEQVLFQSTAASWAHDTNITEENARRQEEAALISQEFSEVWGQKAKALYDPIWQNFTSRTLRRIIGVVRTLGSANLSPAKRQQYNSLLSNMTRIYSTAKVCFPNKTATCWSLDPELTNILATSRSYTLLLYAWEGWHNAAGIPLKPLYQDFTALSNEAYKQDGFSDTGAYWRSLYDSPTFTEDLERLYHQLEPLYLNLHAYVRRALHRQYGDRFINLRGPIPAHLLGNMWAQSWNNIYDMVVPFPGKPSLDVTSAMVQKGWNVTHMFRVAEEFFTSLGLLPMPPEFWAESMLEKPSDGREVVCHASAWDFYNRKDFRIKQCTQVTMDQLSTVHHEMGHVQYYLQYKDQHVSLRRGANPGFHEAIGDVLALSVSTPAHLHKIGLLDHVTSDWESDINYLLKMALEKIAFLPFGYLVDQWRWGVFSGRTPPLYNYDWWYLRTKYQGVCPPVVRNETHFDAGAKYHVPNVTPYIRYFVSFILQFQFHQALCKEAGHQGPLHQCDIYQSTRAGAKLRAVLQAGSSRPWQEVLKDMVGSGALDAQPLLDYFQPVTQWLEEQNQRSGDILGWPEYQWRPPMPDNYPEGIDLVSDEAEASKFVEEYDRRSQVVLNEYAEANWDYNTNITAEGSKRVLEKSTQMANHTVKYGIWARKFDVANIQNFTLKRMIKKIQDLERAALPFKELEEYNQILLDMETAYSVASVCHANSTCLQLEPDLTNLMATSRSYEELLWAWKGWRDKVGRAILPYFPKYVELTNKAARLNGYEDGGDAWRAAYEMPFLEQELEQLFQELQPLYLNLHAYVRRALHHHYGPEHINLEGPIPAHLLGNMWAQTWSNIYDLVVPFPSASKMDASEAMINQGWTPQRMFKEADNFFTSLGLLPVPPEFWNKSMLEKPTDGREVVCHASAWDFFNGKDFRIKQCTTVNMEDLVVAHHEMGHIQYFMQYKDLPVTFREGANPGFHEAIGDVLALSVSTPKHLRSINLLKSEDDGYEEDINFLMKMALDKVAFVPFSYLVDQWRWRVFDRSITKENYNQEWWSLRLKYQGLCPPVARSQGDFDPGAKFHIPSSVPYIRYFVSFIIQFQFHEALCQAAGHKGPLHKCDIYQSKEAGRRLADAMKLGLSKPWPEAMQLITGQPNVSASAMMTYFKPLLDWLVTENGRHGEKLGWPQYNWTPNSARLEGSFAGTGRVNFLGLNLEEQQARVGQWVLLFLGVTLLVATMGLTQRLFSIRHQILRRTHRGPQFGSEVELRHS
Summary of the method: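 ACE (1 nM final) in 50 mM HEPES, 300 mM NaCl, 0.01% Brij-35, pH 7.5, with compound in 5% DMSO at 12 concentrations, 25 °C. Substrate cleavage run ~30 min, stopped with EDTA; fluorescence read at excitation 320 nm, emission 405 nm.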

Carboxypeptidase A = molecular target: T3, Carboxypeptidase A (Bos taurus, UniProt P00730); assay: Carboxypeptidase A activity assay; format: biochemical; details: Ki class, compounds tested in 5% DMSO
T3 sequence (P00730 111-419): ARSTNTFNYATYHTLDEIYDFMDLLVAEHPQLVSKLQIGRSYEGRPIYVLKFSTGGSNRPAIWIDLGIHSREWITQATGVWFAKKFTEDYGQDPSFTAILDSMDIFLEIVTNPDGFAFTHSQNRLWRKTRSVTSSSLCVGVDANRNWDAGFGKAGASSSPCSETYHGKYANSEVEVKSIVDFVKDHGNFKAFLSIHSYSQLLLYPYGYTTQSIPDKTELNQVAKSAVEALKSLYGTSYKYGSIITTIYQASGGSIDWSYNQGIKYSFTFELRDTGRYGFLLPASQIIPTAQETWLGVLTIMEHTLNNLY
Summary of the method: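 Bovine carboxypeptidase A activity followed at 328 nm in 5% DMSO, reaction stopped with EDTA. Activity measured at 12 compound concentrations. Ki derived from apparent Ki as Ki=Kiapp/(1+[S]/Km).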

[3] = Ki class, compounds tested in 5% DMSO, 12 concentrations, read-out: Human ACE-2 Activity
[4] = Ki class, compounds tested in 5% DMSO, 12 compound concentrations, Ki=Kiapp/(1+[S]/Km), read-out: Human ACE-2 Activity

SMILES | Ki (ACE-2 [1]; [3]) [µM] | Ki (ACE-2 [2]; 12 concentrations) [µM] | Ki (ACE (Sigma, A2580); 12 concentrations) [µM] | Ki (Carboxypeptidase A; 12 concentrations) [µM] | Ki (ACE-2 [1]; [4]) [µM] | Ki (ACE-2 [2]; 12 compound concentrations) [µM] | Ki (ACE (Sigma, A2580); 12 compound concentrations) [µM] | Ki (Carboxypeptidase A; 12 compound concentrations) [µM] | Ki (ACE-2 [1]; Table 3, very good ACE-2 inhibiting compounds, species not given, read-out: ACE-2 Activity, Ki) [µM]
CC(C)CC(N[C@@H](Cc1cncn1Cc1ccc(Cl)c(Cl)c1)C(=O)O)C(=O)O (single isomer, unassigned) [GW] | – | – | – | – | < 0.1 | < 0.1 | 10 to 50 | 10 to 50 | –
COc1ccc(CCNC(=O)[C@H](Cc2cnc[nH]2)NC(CC(C)C)C(=O)O)cc1 (single isomer, unassigned) [FK, 2-{2-(3H-Imidazol-4-yl)-1-[2-(4-methoxy-phenyl)-ethylcarbamoyl]-ethylamino}-4-methyl-pentanoic acid] | > 0.5 | > 0.5 | > 50 | > 50 | – | – | – | – | –
CC(C)C[C@H](N[C@@H](Cc1ccccc1)C(=O)O)C(=O)O [BW, 2-(1-Carboxy-2-phenyl-ethylamino)-4-methyl-pentanoic acid] | > 0.5 | 0.1 to 0.5 | > 50 | 10 to 50 | – | – | – | – | –
CC(C)CC(N[C@H](Cc1cn(Cc2ccccc2)cn1)C(=O)O)C(=O)O (stereo in doubt) [CW, 2-[2-(1-Benzyl-1H-imidazol-4-yl)-1-carboxy-ethylamino]-4-methyl-pentanoic acid] | > 0.5 | > 0.5 | > 50 | > 50 | – | – | – | – | –
CC(C)C[C@H](N[C@H](CCc1ccccc1)C(=O)O)C(=O)O [E, 2-(1-Carboxy-3-phenyl-propylamino)-4-methyl-pentanoic acid] | > 0.5 | > 0.5 | > 50 | > 50 | – | – | – | – | –
CC(C)CC(N[C@@H](Cc1c[nH]cn1)C(N)=O)C(=O)O (single isomer, unassigned) [EV, 2-[1-Carbamoyl-2-(1H-imidazol-4-yl)-ethylamino]4-methyl-pentanoic acid] | > 0.5 | > 0.5 | > 50 | > 50 | – | – | – | – | –
CC(C)CC(N[C@@H](Cc1cncn1Cc1ccc(OC(F)(F)F)cc1)C(=O)O)C(=O)O (single isomer, unassigned) [HS, 2-[1-Carboxy-2-[3-(4-trifluoromethoxy-benzyl)-3H-imidazol-4-yl]-ethylamino]-4-methyl-pentanoic acid] | – | – | – | – | < 0.1 | 0.1 to 0.5 | 10 to 50 | 10 to 50 | 0.05 to 0.1

The next lines start with the values.

Ki (ACE-2 [1]; [3]) [µM] | Ki (ACE-2 [2]; 12 concentrations) [µM] | Ki (ACE (Sigma, A2580); 12 concentrations) [µM] | Ki (Carboxypeptidase A; 12 concentrations) [µM] | Ki (ACE-2 [1]; [4]) [µM] | Ki (ACE-2 [2]; 12 compound concentrations) [µM] | Ki (ACE (Sigma, A2580); 12 compound concentrations) [µM] | Ki (Carboxypeptidase A; 12 compound concentrations) [µM] | Ki (ACE-2 [1]; Table 3, very good ACE-2 inhibiting compounds, species not given, read-out: ACE-2 Activity, Ki) [µM] | SMILES
> 0.5 | > 0.5 | 10 to 50 | > 50 | – | – | – | – | – | CCCC(N[C@H](Cc1c[nH]cn1)C(=O)O)C(=O)O (some centres unmarked) [BC, 2-[1-Carboxy-2-(1H-imidazol-4-yl)-ethylamino]pentanoic-acid]
> 0.5 | > 0.5 | > 50 | > 50 | – | – | – | – | – | CC(C)CC(N[C@H](Cc1ccccn1)C(=O)O)C(=O)O (stereo in doubt) [BZ, 2-(1-Carboxy-2-pyridin-2-yl-ethylamino)-4-methyl-pentanoic acid]
> 0.5 | > 0.5 | > 50 | > 50 | – | – | – | – | – | CC(C)CC(N[C@@H](Cc1cncn1COCc1ccccc1)C(=O)O)C(=O)O (single isomer, unassigned) [FH, 2-[2-(3-Benzyloxymethyl-3H-imidazol-4-yl)-1-carboxy-ethylamino]-4-methyl-pentanoic acid]
> 0.5 | 0.1 to 0.5 | > 50 | 10 to 50 | – | – | – | – | – | CCC(C)C(NC(Cc1cncn1Cc1ccccc1)C(=O)O)C(=O)O (single isomer, unassigned) [GC, 2-[2-(3-Benzyl-3H-imidazol-4-yl)-1-carboxy-ethylamino]-3-methyl-pentanoic acid]
> 0.5 | > 0.5 | > 50 | 10 to 50 | – | – | – | – | – | O=C(O)[C@H](CC#Cc1ccccn1)N[C@H](CCc1ccccc1)C(=O)O [EB, 2-(1-Carboxy-3-phenyl-propylamino)-5-pyridin-2-yl-pent-4-ynoic acid]
< 0.1 | < 0.1 | > 50 | 10 to 50 | – | – | – | – | – | CC(C)CC(N[C@@H](Cc1cncn1Cc1ccc(Cl)cc1)C(=O)O)C(=O)O (single isomer, unassigned) [GM, 2-[1-Carboxy-2-[3-(4-chloro-benzyl)-3H-imidazol-4-yl]-ethylamino]4-methyl-pentanoic acid]
